Results published in ChEMBL document CHEMBL1152832, “Quantitative structure-activity relationship (QSAR) of aryl alkenyl amides/imines for bacterial efflux pump inhibitors” (2009).
In brackets after ≈: the same amount, converted by molar mass. Activity calls are given as the source filed them. No cut-off for these calls is given here.

System: Staphylococcus aureus
Test: Inhibition of multidrug resistance efflux pump in Staphylococcus aureus ATCC 29213 assessed as potentiation factor measured by reduction in weighted average of ciprofloxacin MIC by serial dilution method
Details: not given

| Compound | PF | logPF |
| --- | --- | --- |
| CCC(/C=C/C(=O)N1CCCC1)=C\c1ccc2c(c1)OCO2 | 90 | 1.95 |
| CCC(/C=C/C(=O)N[C@@](C)(O)c1ccccc1)=C\c1ccc2c(c1)OCO2 | 30 | 1.48 |
| CC(/C=C/C(=O)O)=C\c1ccc2c(c1)OCO2 | 10 | 1 |
| CCC(/C=C/C(=O)NCC(=O)OC)=C\c1ccc2c(c1)OCO2 | 290 | 2.46 |
| C(/C=C/c1ccc2c(c1)OCO2)=C\CN1CCCCC1 | 30 | 1.48 |
| CC(/C=C/C(=O)N1CCCC1)=C\c1ccc2c(c1)OCO2 (stereo in doubt; 12) | 130 | 2.11 |
| CCC(CCCC(=O)NCC(=O)NCC(=O)OC)Cc1ccc2c(c1)OCO2 (stereo not drawn) | 70 | 1.85 |
| COc1ccc(/C=C(C)/C=C/C(=O)N2CCCCC2)cc1 | 130 | 2.11 |
| CCCCC(/C=C/C(=O)N1CCN(C)CC1)=C\c1ccc2c(c1)OCO2 | 160 | 2.2 |
| CCCC(/C=C/C(=O)O)=C\c1ccc2c(c1)OCO2 | inactive | inactive |
| CCCCC(/C=N/O)=C\c1ccc(OC)cc1 | 100 | 2 |
| CCOC(=O)/C=C/C(C)=C/c1ccc2c(c1)OCO2 | inactive | inactive |
| CCCC(/C=C/C(=O)N1CCN(C)CC1)=C\c1ccc(OC)cc1 | 130 | 2.11 |
| CCC(CCC(=O)NCC(C)C)Cc1ccc2c(c1)OCO2 (stereo not drawn) | 70 | 1.85 |
| CC(/C=C/C(=O)N1CCCC1)=C\c1ccc2c(c1)OCO2 (stereo in doubt; 3) | 110 | 2.04 |
| CCC(/C=C/C(=O)N1CCN(C)CC1)=C\c1ccc2c(c1)OCO2 | 130 | 2.11 |
| CCCC(/C=C/C(=O)N1CCN(C)CC1)=C\c1ccc2c(c1)OCO2 | 60 | 1.78 |
| CC(/C=C/C(=O)N1CCC(O)CC1)=C\c1ccc2c(c1)OCO2 | 210 | 2.32 |
| CCCCC(/C=C/C(=O)N1CCC(O)CC1)=C\c1ccc2c(c1)OCO2 | 70 | 1.85 |
| CCC(/C=C/C(=O)Nc1ccccc1OC)=C\c1ccc2c(c1)OCO2 | 60 | 1.78 |
| CCC(/C=C/C(=O)N1CCCCC1)=C\c1ccc(OC)c(OC)c1 | 220 | 2.34 |
| CC/C=C/C(=C/c1ccc2c(c1)OCO2)CC | 20 | 1.3 |
| CCCC(/C=C/C(=O)N1CCCCC1)=C\c1ccc(OC)cc1 | 210 | 2.32 |

| Compound | PF | logPF |
| --- | --- | --- |
| CCCCCCC(/C=C/C(=O)N1CCCCC1)=C\c1ccc(OC)cc1 | 130 | 2.11 |
| CCC(/C=C/C(=O)O)=C\c1ccc2c(c1)OCO2 | 10 | 1 |
| CCC(/C=C/C(=O)NC(C)C=O)=C\c1ccc2c(c1)OCO2 (stereo not drawn) | 30 | 1.48 |
| CCC(/C=C/C(=O)N1CCCCC1)=C\c1ccc2c(c1)OCO2 | 240 | 2.38 |
| CCC(CO)NC(=O)/C=C/C(C)=C/c1ccc2c(c1)OCO2 (stereo not drawn) | 30 | 1.48 |
| CCCCC(/C=N/c1ccccc1C(=O)O)=C\c1ccc(OC)cc1 | 100 | 2 |
| CCC(/C=C/C(=O)Nc1ccccc1C)=C\c1ccc2c(c1)OCO2 | 60 | 1.78 |
| CC(=O)CNC(=O)CC(=O)/C=C/C(C)=C/c1ccc2c(c1)OCO2 | 310 | 2.49 |
| CC(/C=C/C(=O)N1CCN(C)CC1)=C\c1ccc2c(c1)OCO2 | 130 | 2.11 |
| CCC(/C=C/C(=O)NCC(C)C)=C\c1ccc2c(c1)OCO2 | 270 | 2.43 |
| CC(/C=C/C(=O)N1CCCCC1)=C\c1ccc2c(c1)OCO2 | 180 | 2.25 |
| CCC(/C=N/C(CC)CO)=C\c1ccc2c(c1)OCO2 (stereo not drawn) | 150 | 2.18 |
| CCC(/C=C/CN1CCCCC1)=C\c1ccc2c(c1)OCO2 | 70 | 1.85 |
| COC(=O)/C=C/C(C)=C/c1ccc2c(c1)OCO2 | inactive | inactive |
| O=C(/C=C/C=C/c1ccc2c(c1)OCCO2)N1CCOCC1 | 40 | 1.6 |
| COc1cc(/C=C(C)/C=C/C(=O)N2CCCCC2)ccc1O | 10 | 1 |
| CCC(/C=C/C(=O)N1CCC(O)CC1)=C\c1ccc2c(c1)OCO2 | 210 | 2.32 |
| CC(/C=C/C(=O)NC(C)c1ccc(Br)cc1)=C\c1ccc2c(c1)OCO2 (stereo not drawn) | 380 | 2.58 |
| CC(/C=C/C(=O)N1CCOCC1)=C\c1ccc2c(c1)OCO2 | inactive | inactive |
| CCCCC(/C=N/C(CC)CO)=C\c1ccc(OC)cc1 (stereo not drawn) | 100 | 2 |
| CCCC(/C=C/C(=O)N1CCCCC1)=C\c1ccc2c(c1)OCO2 | 210 | 2.32 |
| CCCCC(/C=C/C(=O)N1CCCCC1)=C\c1ccc2c(c1)OCO2 | 200 | 2.3 |
| CCC(/C=C/C(=O)Nc1ccccc1)=C\c1ccccc1 | 210 | 2.32 |

System: Staphylococcus aureus
Test: microbe, parasite or virus in culture
Details: ATCC 29213, 24 h
Description: Antibacterial activity against Staphylococcus aureus ATCC 29213 after 24 hrs

| Compound | MIC [µg/mL] |
| --- | --- |
| O=C(O)c1cn(C2CC2)c2cc(N3CCNCC3)c(F)cc2c1=O [CIPROFLOXACIN] | 0.25 (≈ 0.754 µM) |
